Laboratory results taken from ChEMBL document CHEMBL1201862, “PubChem BioAssay data set” (2004).
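Protocol summary: plate cells (96-well), add compound at 5 concentrations, incubate 48 h, interpolate endpoints linearly. Here, GI50 denotes the concentration required for 50% inhibition of growth.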 Active and inactive are the calls of the source. Cut-off read from the data, not from the text of the source: active = GI50 up to about 1.1 µM and inactive = higher.

What was measured:
Assay in all cases: growth of human tumour cells (NCI), 48 h
NCI-H522 = tested on: NCI-H522
Hs-578T = tested on: Hs-578T
HCT-116 = tested on: HCT-116
HOP-62 = tested on: HOP-62
LOX IMVI = tested on: LOX IMVI
786-0 = tested on: 786-0
PC-3 = tested on: PC-3
IGROV-1 = tested on: IGROV-1
OVCAR-4 = tested on: OVCAR-4
NCI-H23 = tested on: NCI-H23
A498 = tested on: A498
SNB-19 = tested on: SNB-19
CCRF-CEM = tested on: CCRF-CEM
MDA-MB-231 = tested on: MDA-MB-231
NCI/ADR-RES = tested on: NCI/ADR-RES
SK-OV-3 = tested on: SK-OV-3
SF-295 = tested on: SF-295
SK-MEL-2 = tested on: SK-MEL-2
MCF7 = tested on: MCF7
OVCAR-3 = tested on: OVCAR-3

Compound	GI50 (NCI-H522)	GI50 (Hs-578T)	GI50 (HCT-116)	GI50 (HOP-62)	GI50 (LOX IMVI)	GI50 (786-0)	GI50 (PC-3)	GI50 (IGROV-1)	GI50 (OVCAR-4)	GI50 (NCI-H23)	GI50 (A498)	GI50 (SNB-19)	GI50 (CCRF-CEM)	GI50 (MDA-MB-231)	GI50 (NCI/ADR-RES)	GI50 (SK-OV-3)	GI50 (SF-295)	GI50 (SK-MEL-2)	GI50 (MCF7)	GI50 (OVCAR-3)
CC1(C)CC(O)C2=C(O1)C(=O)c1ncccc1C2=O (stereo not given)	1.29 µM (inactive)	2.7 µM (inactive)	2.28 µM (inactive)	1.85 µM (inactive)	1.58 µM (inactive)	1.87 µM (inactive)	2.9 µM (inactive)	2.17 µM (inactive)	1.73 µM (inactive)	1.64 µM (inactive)	5.3 µM (inactive)	4.65 µM (inactive)	2.19 µM (inactive)	2.29 µM (inactive)	1.5 µM (inactive)	13.7 µM (inactive)	1.83 µM (inactive)	2.58 µM (inactive)	2.12 µM (inactive)	2.35 µM (inactive)
CC(C)=CCC[C@@H](C)C1=C(Nc2ccccc2Cl)C(=O)C(C)=C(O)C1=O	2.57 µM (inactive)	3.42 µM (inactive)	3.91 µM (inactive)	3.45 µM (inactive)	3.26 µM (inactive)	1.81 µM (inactive)	4.85 µM (inactive)	2.45 µM (inactive)	5.53 µM (inactive)	2.84 µM (inactive)	5.42 µM (inactive)	4.49 µM (inactive)	1.01 µM (active)	4.61 µM (inactive)	1.1 µM (active)	5.14 µM (inactive)	2.88 µM (inactive)	3.66 µM (inactive)	7.69 µM (inactive)	3.36 µM (inactive)
COc1cccc(/N=N/C(=N/NC(=O)c2ccc(C)cc2)c2ccc(N(CCC#N)CCC#N)cc2OC)c1	> 100 µM (inactive)	> 100 µM (inactive)	> 100 µM (inactive)	> 100 µM (inactive)	> 100 µM (inactive)	> 100 µM (inactive)	> 100 µM (inactive)	> 100 µM (inactive)	> 100 µM (inactive)	> 100 µM (inactive)	> 100 µM (inactive)	> 100 µM (inactive)	> 100 µM (inactive)	> 100 µM (inactive)	> 100 µM (inactive)	> 100 µM (inactive)	59 µM (inactive)	> 100 µM (inactive)	> 100 µM (inactive)	> 100 µM (inactive)
Cc1ccsc1/C(S)=N\c1ccc(Cl)c(/C=N/OC(C)(C)C)c1	24 µM (inactive)	29.7 µM (inactive)	16.4 µM (inactive)	51.5 µM (inactive)	18.6 µM (inactive)	20.9 µM (inactive)	34.4 µM (inactive)	28.9 µM (inactive)	> 100 µM (inactive)	24.7 µM (inactive)	20.2 µM (inactive)	> 100 µM (inactive)	24.2 µM (inactive)	21.2 µM (inactive)	23.6 µM (inactive)	> 100 µM (inactive)	28.1 µM (inactive)	41.8 µM (inactive)	35.2 µM (inactive)	83.2 µM (inactive)
Cn1c2ccc(Cl)cc2c2ccc3c(c21)C(=O)C=CC3=O	> 10 µM (inactive)	> 10 µM (inactive)	> 10 µM (inactive)	> 10 µM (inactive)	> 10 µM (inactive)	> 10 µM (inactive)	> 10 µM (inactive)	> 10 µM (inactive)	> 10 µM (inactive)	> 10 µM (inactive)	> 10 µM (inactive)	> 10 µM (inactive)	3.88 µM (inactive)	> 10 µM (inactive)	> 10 µM (inactive)	> 10 µM (inactive)	> 10 µM (inactive)	> 10 µM (inactive)	> 10 µM (inactive)	> 10 µM (inactive)
O=C1c2ccccc2NC2C(O)c3ccccc3N12 (stereo not given)	4.09 µM (inactive)	25.1 µM (inactive)	30.5 µM (inactive)	65 µM (inactive)	36.6 µM (inactive)	> 100 µM (inactive)	35.4 µM (inactive)	72.8 µM (inactive)	25.5 µM (inactive)	29.8 µM (inactive)	20.6 µM (inactive)	> 100 µM (inactive)	29.4 µM (inactive)	> 100 µM (inactive)	40.4 µM (inactive)	> 100 µM (inactive)	28.8 µM (inactive)	52 µM (inactive)	40.2 µM (inactive)	37 µM (inactive)
